Experimental findings from a melting point compilation (Tetko et al.; mined from patent text by program, amines drawn as free bases though some values may be those of a salt) are described below.

As to `CC1(C)CC(N)CC(C)(C)N1Cc1ccccc1`, the melting point is 73 to 75 °C.

Turning to `CC(O)(C=Cc1ccc(S(=O)(=O)N2CCCC2)cc1)C(F)(F)F` (centres undefined), the melting point lay in the range of 119 to 121 °C.

In turn, `COc1cccc(C2=C(C#N)C(c3cccc4nonc34)c3c[nH]nc3N2)c1` (centres undefined) came in with a melting point of 198 °C.

With `COc1cc(OC)cc(N2CCN(C(=S)Nc3cc(C(C)O)c(C)nc3OC)CC2)c1` (centres undefined), the melting point was 189 to 190 °C.

Turning to `CNCc1ccc(CSCCNC2=NS(=O)(=O)N=C2NC)o1`, the melting point lay in the range of 50 to 56 °C.

`COc1ccc(C(=O)[C@H]2CCCC[C@H]2C(=O)O)cc1OC1CCCC1` (relative stereo) displayed a melting point of 120 to 121 °C.

With `CCSc1cc(C)nc(SCC)c1NC(=O)CSc1nc2cccc(C(=O)OC)c2o1`, the melting point is 168 to 169 °C.

As for `Fc1cc(-c2nc3ccccc3o2)ccc1CBr`, the melting point is 150 to 152 °C.

For `CCCCc1nc(CO)c(Cl)n1Cc1ccccc1`, the melting point lay in the range of 78 to 80 °C.

As to `O=C(c1ccc(F)cc1C(F)(F)F)N1Cc2cccn2Cc2ccccc21`, the melting point was 154 to 155 °C.

For the compound `O=c1[nH]c2ccccc2n2cnc(-c3ccc(F)cc3)c12`, the melting point is over 300 °C.

`Cc1nc2scc(C)n2c(=O)c1CCN1CCC(=C(c2ccc(F)cc2)c2ccc(F)cc2)CC1` showed a melting point of 184 °C.

`C#Cc1cc(F)c(-n2c(=O)c(C)c(C(F)(F)F)n(C)c2=O)cc1NS(C)(=O)=O` displayed a melting point of 207 to 208 °C.

`O=c1cc(N2CCOCC2)nc2n1CC[C@@H](C(F)(F)F)N2` had a melting point of 108 °C.

Regarding `CCCCOc1c(CN2C(=O)c3ccccc3C2=O)n(CC(C)(C)C)c(=O)c2ccc(F)cc12`, the melting point fell in the range of 162 to 164 °C.

`CCc1ccnc(C(=O)c2[nH]c3ccc(Cl)cc3c2CC(=O)O)c1F` yielded a melting point of 208 °C.

On to `CC(=O)c1ccc(-c2ccc(F)cc2Br)cc1`, for which the melting point lay within 70 to 72 °C.

As for `CO[C@H]1CN(c2c(F)c(N)c3c(=O)c(C(=O)O)cn([C@@H]4C[C@@H]4F)c3c2C)C[C@@H]1C1(N)CC1`, the melting point was in the range of 202 to 204 °C.

`O=C1c2cc(O)ccc2SCC1Cc1ccccc1` (centres undefined): the melting point lay in the range of 73 to 77 °C.

The compound `Nc1cc(Cl)c([N+](=O)[O-])cc1OC(=O)c1ccccc1` gave a melting point of 199 to 201 °C.

`c1ccc(NCP2CN(c3ccccc3)CN(c3ccccc3)C2)cc1` displayed a melting point of 96 to 97 °C.

As to `CC1CCN(c2cc(C(C)(C)C)on2)C1=O` (centres undefined), the melting point lay in the range of 89 to 90 °C.

`CCCOc1ccccc1-c1nc2nnc(OC)nc2c(=O)[nH]1` showed a melting point of 221 to 222 °C.

Consider `CC(C)(N)CNC(=O)Cc1ccccc1`, for which the melting point was 68 to 71 °C.

For `CC(C)c1nn(-c2ccc(C(F)(F)F)cn2)cc1CCCCOc1ccc(CCC(=O)O)cc1`, the melting point is 144 to 145 °C.

`CCCCCCCCCCCCCCCCCCN1C(=O)c2ccccc2C1=O` registered a melting point of 78 to 79 °C.

In turn, `O=C1OC(c2ccccc2)=NC1Cc1c[nH]c2ccccc12` (centres undefined) showed a melting point of 141 to 143 °C.

In turn, `Cc1cc(CC(=O)O)c(CC(C)N)cc1C` (centres undefined) yielded a melting point of 222 to 223 °C.

For `N#Cc1c(Nc2cccc(Cl)c2)nn(Cc2ccccc2)c1N`, the melting point fell in the range of 234 to 236 °C.

In the case of `CCC1CCCCN1CCC(=O)N1c2ccccc2NC(=O)c2ccccc21` (centres undefined), the melting point was 147 to 148 °C.

The compound `O=c1nc(-c2c(-c3ccccc3)nn3ccccc23)cc[nH]1` registered a melting point of 287 to 289 °C.

With `O=C1C2CCCCC2C(=O)N1c1ccc(Cl)cc1F` (centres undefined), the melting point lay within 94 to 95.5 °C.

With `Cc1ccc(S(=O)(=O)OCC2CCc3cc(C#N)ccc3C2)cc1` (centres undefined), the melting point was in the range of 100 to 102 °C.

As to `Cc1cc2c(c(C)c1Br)C(c1ccccc1)CO2` (centres undefined), the melting point lay within 135 to 136 °C.

For the compound `O=C1c2cc(OCc3ccccc3)ccc2OCC1Oc1cccnc1` (centres undefined), the melting point is 133 to 134 °C.

The compound `Cc1ncc2n1-c1ccc(Cl)cc1C(c1ccccc1F)N=C2` (centres undefined) came in with a melting point of 180 to 181 °C.

In turn, `O=C(O)COc1nc2cc(Cl)c3cccnc3c2o1` returned a melting point of 214 to 215 °C.

In turn, `CCN(CC)C(=O)COc1ccc(CCC(=O)NS(=O)(=O)CCC(C)C)c(Oc2ncc(C(F)(F)F)cc2Cl)c1` had a melting point of 123 to 125 °C.

In the case of `Cc1ccc(S(=O)(=O)NC(=O)OCCc2ccc(-n3c(C(C)C)nc4cc(C(=O)N(C)C)c(Cl)cc43)cc2)cc1`, the melting point is 173 to 176 °C.

Take `Cc1cc2c3c(cc(Br)cc3c1Br)C(=O)N(O)C2=O`: the melting point was 320 to 323 °C.

For `CCn1ncc2c3onc(-c4cccc(Cl)c4)c3cnc21`, the melting point lay within 178 to 179 °C.

`CCOC(=O)c1cn(-c2ccc(F)cc2)c2nc(Cl)c(F)cc2c1=O` registered a melting point of 230 to 232 °C.

Turning to `CCOC(=O)C(=Cc1cc(OC)c(OC)cc1OC)C(=O)OCC`, the melting point was in the range of 86 to 87 °C.

On to `c1ccc(N(CCCNC2=NC3CCC2CC3)c2ccccc2)cc1`, for which the melting point is 148 to 150 °C.

Take `O=c1cc(NCCN2CCN(c3ccccc3)CC2)cn[nH]1`: the melting point is 147 to 149 °C.

In the case of `CC(C)(C)c1cc(-c2c[nH]c(=O)[nH]2)cc(C(C)(C)C)c1O`, the melting point is over 260 °C.

In turn, `C=CCc1ccc2oc(CC)c(C)c2c1O` gave a melting point of 38 to 40 °C.

For `COC(=O)c1cc2cc(OC)c(OC)cc2c(-c2ccnc(N3C(=O)CCc4ccccc43)c2)c1C(=O)OC`, the melting point lay within 229 to 233 °C.

`N=C1NCCN1Cc1ccccc1`: the melting point was in the range of 165 to 167 °C.

Compound `Brc1nnc2n1C=Cc1ccccc1C2` had a melting point of 169 to 170 °C.

For `CC(C)(C)OC(=O)NCCNC(=O)c1nc(Cl)sc1-c1ccccc1`, the melting point lay within 114 to 116 °C.

In the case of `CCC(=O)C(=Cc1cc(O)c(O)c(C#N)c1)C(=O)CC`, the melting point lay within 165 to 173 °C.

Regarding `O=c1nc(-c2ccccn2)sc2ccc(F)cc12`, the melting point stood at 240 °C.

`O=C(O)COc1cccc2c1CCc1sc(S(=O)(=O)C(c3ccccc3F)c3ccccc3F)nc1-2` had a melting point of 204 to 208 °C.

On to `Cc1[nH]c(C=O)c2c1-c1ccc(Cl)cc1C(c1ccccc1Cl)=NC2`, for which the melting point lay in the range of 274 to 276 °C.

In the case of `FC(F)(F)COc1ccccc1Sc1nc[nH]n1`, the melting point was in the range of 100 to 101 °C.

The compound `COC(=O)c1cc(=O)c2cc(F)ccc2o1` gave a melting point of 138 to 139 °C.

Take `COc1ccc2c(C(=O)N3CCC[C@H]3C(=O)O)cc3cc4c(cc3c2c1)OCO4`: the melting point was in the range of 207 to 208 °C.

On to `CCCCN(CCCC)c1ccc(C=CC2=C(OC)C(=CC=CC3=C(C#N)C(=C(C#N)C#N)OC3(C)C(F)(F)F)CC(C)(C)C2)c(OC)c1` (centres undefined), for which the melting point was in the range of 141 to 151 °C.

Take `O=C(O)Cc1ccc(CCNS(=O)(=O)c2ccc3ccccc3c2)cc1`: the melting point lay in the range of 135 to 136 °C.

Regarding `CCCCCCCCCCCc1coc(NC(=O)Nc2c(C(C)C)cccc2C(C)C)n1`, the melting point was in the range of 104 to 108 °C.

The compound `COc1ccc2[nH]cc(/C(C#N)=C/c3ccn(C)n3)c2c1` had a melting point of 178 °C.

On to `COC(=O)c1cccc(OCC(=O)NN=C2C(=O)Nc3ccc(I)cc32)c1`, for which the melting point came to 237 °C.

With `N[C@@H](Cc1cccc(OC(F)(F)C(F)F)c1)[C@H](O)c1ccc(F)nc1` (racemic), the melting point lay within 103 to 104 °C.

The compound `COc1cc2nc(SCc3cc(N(C)C)c(Cl)cn3)[nH]c2cc1OC` came in with a melting point of 116 to 117 °C.

In the case of `CCOC(=O)c1cn(Cc2ccc(OCc3nc(-c4ccccc4)oc3C)cc2)nc1OCc1ccc(OCc2nc(-c3ccccc3)oc2C)cc1`, the melting point lay within 118 to 119 °C.

Consider `CCCCP(=O)(O)CC(C)(O)CN` (centres undefined), for which the melting point was in the range of 187 to 189 °C.

The compound `Cc1ccc(N2CN(CCN(C)C)CN(C)C2=S)c(C)c1` had a melting point of 65 to 70 °C.

As for `O=c1[nH]c2ccccc2n1C1=CCN(C2CCC(c3ccc(F)cc3)(c3ccc(F)cc3)CC2)CC1`, the melting point lay in the range of 235 to 238 °C.

`CCN(CC)C(=O)c1c(C(C)C)cc(OC)cc1S(N)(=O)=O` registered a melting point of 122 to 125 °C.

In turn, `CCN1C(=O)C(C)(C)C(=O)N(C)c2cc(CN(CCn3cc(C)c4oc(C)cc4c3=O)Cc3cc(C)n(C)n3)ccc21` displayed a melting point of 113 to 116 °C.

`COC(=O)c1cc(NS(C)(=O)=O)ccc1OC` displayed a melting point of 82 to 83 °C.

`O=S(CCCCCl)Cc1ccc(Cl)c(Cl)c1` (centres undefined) had a melting point of 155 to 158 °C.

In the case of `COc1ccc(C[C@@H](NC(=O)c2cccc3ccccc23)[C@@H](O)c2ccc(F)cc2)cc1` (racemic), the melting point was 198 to 199 °C.

In turn, `CCC1CC(=O)N(Cc2cccc(NS(C)(=O)=O)c2)N=C1c1ccc(OC)c(OC2CCCC2)c1` (centres undefined) came in with a melting point of 113 °C.

As for `O=C(c1ccc(CN2CC=CCC2)cc1)N1CCN2C(=O)OC(c3ccccc3)(c3ccccc3)C2C1` (centres undefined), the melting point fell in the range of 189 to 191 °C.

In turn, `COc1ccc(C=CC(=O)c2cccc(O)c2)cc1` had a melting point of 93 to 94 °C.

Compound `COc1cc2c3c(c1)c(=O)c(C(=O)O)cn3CCC2` registered a melting point of 253 to 257 °C.

Compound `CC(=O)OCCCCCC(=O)CC(=O)c1ccccc1` returned a melting point of 23 to 24 °C.

Compound `CCOC(=O)c1c(CCCn2cncn2)nc2sc3c(c2c1-c1ccc(OC)c(OC)c1)CCN(C(=O)c1ccc(Cl)cc1)C3` came in with a melting point of 114 to 116 °C.

Take `O=C(O)CC[C@@H](Cc1cn(Cc2ccccc2)c2ccccc12)NC(=O)CCCCCCc1ccccc1`: the melting point fell in the range of 130 to 132 °C.

In the case of `CS(=O)(=O)c1ccc(/C(=C2\CCN(CCO)C2=O)c2ccc(Cl)cc2)cc1`, the melting point is 187 to 188 °C.

For `NC(=O)COc1cc(C(F)(F)F)cc(C(F)(F)F)c1`, the melting point fell in the range of 139 to 141 °C.

Take `Cc1cccc(C)c1N1C(=S)N(C)C(O)C1O` (centres undefined): the melting point was 140 to 143 °C.

The compound `Cc1ccc2c(Sc3cc(Cl)cc(Cl)c3)c(CCCC(N)=O)[nH]c2c1` registered a melting point of 163 to 164 °C.

For `CSCc1ccc(NC(=O)/C=C/c2cnn(C)c2-c2ccc(SC)cc2)cc1`, the melting point fell in the range of 145 to 146 °C.

Consider `CCOc1ccccc1C=[N+]([O-])C1CCC1`, for which the melting point worked out at 76 °C.

On to `CCOC(=O)Cc1ccc(C(=O)CN2CCN(c3ccncc3)CC2)cc1`, for which the melting point is 122 to 124 °C.

Regarding `Cc1ccnc2c(Oc3ccc(N)cc3)cccc12`, the melting point was 157 to 159 °C.

One may read the melting point as the temperature, or range, at which the solid turns liquid.
